From ChEMBL document CHEMBL1275576, “In vitro activity of tomopenem (CS-023/RO4908463) against anaerobic bacteria” (Antimicrob Agents Chemother, 2009)

Key:
Bacteroides fragilis [1] = assay: Antimicrobial activity against Bacteroides fragilis by agar dilution method in presence of 5% laked sheep blood; format: functional
Parvimonas micra [2] = assay: Antimicrobial activity against Parvimonas micra by agar dilution method in presence of 5% laked sheep blood; format: functional
[3] = tested on: Limosilactobacillus reuteri; assay: Antimicrobial activity against Lactobacillus reuteri JCM 1112 by agar dilution method in presence of 5% laked sheep blood; format: functional
Prevotella sp. = assay: Antimicrobial activity against Prevotella sp. by agar dilution method in presence of 5% laked sheep blood; format: functional
[4] = tested on: Peptostreptococcus anaerobius; assay: Antimicrobial activity against Peptostreptococcus anaerobius by agar dilution method in presence of 5% laked sheep blood; format: functional
[5] = tested on: Bacteroides eggerthii DSM 20697; assay: Antimicrobial activity against Bacteroides eggerthii ATCC 27754 by agar dilution method in presence of 5% laked sheep blood; format: functional
Prevotella intermedia = assay: Antimicrobial activity against Prevotella intermedia by agar dilution method in presence of 5% laked sheep blood; format: functional
[6] = tested on: Prevotella melaninogenica; assay: Antimicrobial activity against Prevotella melaninogenica by agar dilution method in presence of 5% laked sheep blood; format: functional
Finegoldia magna = assay: Antimicrobial activity against Finegoldia magna by agar dilution method in presence of 5% laked sheep blood; format: functional
[7] = tested on: Desulfovibrio desulfuricans; assay: Antimicrobial activity against Desulfovibrio desulfuricans by agar dilution method in presence of 5% laked sheep blood; format: functional
Eggerthella lenta = assay: Antimicrobial activity against Eggerthella lenta by agar dilution method in presence of 5% laked sheep blood; format: functional
[8] = Antimicrobial activity against Desulfovibrio piger DSM 749 by agar dilution method in presence of 5% laked sheep blood; format: functional, Desulfovibrio piger ATCC 29098
[9] = tested on: Sutterella wadsworthensis; assay: Antimicrobial activity against Sutterella wadsworthensis ATCC 51579 by agar dilution method in presence of 5% laked sheep blood; format: functional
[10] = Antimicrobial activity against Finegoldia magna ATCC 29328 by agar dilution method in presence of 5% laked sheep blood; format: functional
Bacteroides fragilis [11] = assay: Antimicrobial activity against Bacteroides fragilis GAI 7955 by agar dilution method in presence of 5% laked sheep blood; format: functional
[12] = tested on: Fusobacterium necrophorum; assay: Antimicrobial activity against Fusobacterium necrophorum by agar dilution method in presence of 5% laked sheep blood; format: functional
Bacteroides fragilis [13] = assay: Antimicrobial activity against Bacteroides fragilis GAI 0558 by agar dilution method in presence of 5% laked sheep blood; format: functional
[14] = tested on: Bacteroides heparinolyticus; assay: Antimicrobial activity against Prevotella heparinolytica ATCC 35895 by agar dilution method in presence of 5% laked sheep blood; format: functional
Fusobacterium mortiferum = assay: Antimicrobial activity against Fusobacterium mortiferum by agar dilution method in presence of 5% laked sheep blood; format: functional
[15] = tested on: Parabacteroides distasonis; assay: Antimicrobial activity against Parabacteroides distasonis by agar dilution method in presence of 5% laked sheep blood; format: functional
Bacteroides caccae = assay: Antimicrobial activity against Bacteroides caccae by agar dilution method in presence of 5% laked sheep blood; format: functional
Prevotella corporis = assay: Antimicrobial activity against Prevotella corporis GAI 91000 by agar dilution method in presence of 5% laked sheep blood; format: functional
Prevotella oris = assay: Antimicrobial activity against Prevotella oris ATCC 33573 by agar dilution method in presence of 5% laked sheep blood; format: functional; conditions: Segatella oris
[16] = tested on: Porphyromonas asaccharolytica; assay: Antimicrobial activity against Porphyromonas asaccharolyticus ATCC 25260 by agar dilution method in presence of 5% laked sheep blood; format: functional; conditions: DSM 20707
Bacteroides fragilis [17] = assay: Antimicrobial activity against Bacteroides fragilis GAI 10150 by agar dilution method in presence of 5% laked sheep blood; format: functional
Parvimonas micra [18] = assay: Antimicrobial activity against Parvimonas micra VPI 5464-1 by agar dilution method in presence of 5% laked sheep blood; format: functional
Eubacterium limosum = assay: Antimicrobial activity against Eubacterium limosum by agar dilution method in presence of 5% laked sheep blood; format: functional
Clostridium perfringens = assay: Antimicrobial activity against Clostridium perfringens ATCC 13124 by agar dilution method in presence of 5% laked sheep blood; format: functional
Phocaeicola vulgatus [19] = assay: Antimicrobial activity against Bacteroides vulgatus by agar dilution method in presence of 5% laked sheep blood; format: functional
[20] = tested on: Porphyromonas asaccharolytica; assay: Antimicrobial activity against Porphyromonas asaccharolyticus by agar dilution method in presence of 5% laked sheep blood; format: functional
[21] = tested on: Peptoniphilus asaccharolyticus; assay: Antimicrobial activity against Peptoniphilus asaccharolyticus by agar dilution method in presence of 5% laked sheep blood; format: functional
Porphyromonas gingivalis [22] = assay: Antimicrobial activity against Porphyromonas gingivalis ATCC 33277 by agar dilution method in presence of 5% laked sheep blood; format: functional
Porphyromonas gingivalis [23] = assay: Antimicrobial activity against Porphyromonas gingivalis by agar dilution method in presence of 5% laked sheep blood; format: functional
Porphyromonas uenonis = assay: Antimicrobial activity against Porphyromonas uenonis by agar dilution method in presence of 5% laked sheep blood; format: functional
[24] = tested on: Bifidobacterium pseudolongum; assay: Antimicrobial activity against Bifidobacterium pseudolongum ATCC 25526 by agar dilution method in presence of 5% laked sheep blood; format: functional
Clostridioides difficile = assay: Antimicrobial activity against Clostridium difficile by agar dilution method in presence of 5% laked sheep blood; format: functional
Fusobacterium sp. = assay: Antimicrobial activity against Fusobacterium sp. by agar dilution method in presence of 5% laked sheep blood; format: functional
Bacteroides fragilis [25] = assay: Antimicrobial activity against Bacteroides fragilis NCTC 10581 by agar dilution method in presence of 5% laked sheep blood; format: functional
[26] = tested on: Enterocloster clostridioformis; assay: Antimicrobial activity against Clostridium clostridioforme NCTC 11224 by agar dilution method in presence of 5% laked sheep blood; format: functional
Prevotella buccae = assay: Antimicrobial activity against Prevotella buccae ATCC 33574 by agar dilution method in presence of 5% laked sheep blood; format: functional; conditions: Segatella buccae
Bacteroides uniformis = assay: Antimicrobial activity against Bacteroides uniformis by agar dilution method in presence of 5% laked sheep blood; format: functional
Bacteroides fragilis [27] = assay: Antimicrobial activity against Bacteroides fragilis ATCC 25285 by agar dilution method in presence of 5% laked sheep blood; format: functional; conditions: NCTC 9343
[28] = tested on: Bacteroides thetaiotaomicron; assay: Antimicrobial activity against Bacteroides thetaiotaomicron by agar dilution method in presence of 5% laked sheep blood; format: functional
Phocaeicola vulgatus [29] = assay: Antimicrobial activity against Bacteroides vulgatus GAI 0673 by agar dilution method in presence of 5% laked sheep blood; format: functional
Lactobacillus brevis = assay: Antimicrobial activity against Lactobacillus brevis subsp. brevis JCM 1059 by agar dilution method in presence of 5% laked sheep blood; format: functional; conditions: Levilactobacillus brevis

C[C@@H](O)[C@H]1C(=O)N2C(C(=O)O)=C(S[C@@H]3CN[C@H](C(=O)N(C)C)C3)[C@H](C)[C@H]12 [MEROPENEM]
MIC50 (Bacteroides fragilis [1]): 0.25 µg/mL
MIC90 (Bacteroides fragilis [1]): 0.5 µg/mL
MIC50 (Parvimonas micra [2]): 0.06 µg/mL
MIC90 (Parvimonas micra [2]): 0.125 µg/mL
MIC [3]: 0.5 µg/mL
MIC50 (Prevotella sp.): 0.125 µg/mL
MIC90 (Prevotella sp.): 0.25 µg/mL
MIC50 [4]: 0.25 µg/mL
MIC90 [4]: 2 µg/mL
MIC [5]: 0.125 µg/mL
MIC50 (Prevotella intermedia): 0.06 µg/mL
MIC90 (Prevotella intermedia): 0.125 µg/mL
MIC50 [6]: 0.125 µg/mL
MIC90 [6]: 0.25 µg/mL
MIC50 (Finegoldia magna): 0.125 µg/mL
MIC90 (Finegoldia magna): 0.125 µg/mL
MIC50 [7]: 0.06 µg/mL
MIC90 [7]: 0.125 µg/mL
MIC50 (Eggerthella lenta): 0.5 µg/mL
MIC90 (Eggerthella lenta): 1 µg/mL
MIC [8]: 0.03 µg/mL
MIC [9]: 0.06 µg/mL
MIC [10]: 0.125 µg/mL
MIC (Bacteroides fragilis [11]): 2 µg/mL
MIC50 [12]: 0.03 µg/mL
MIC90 [12]: 0.125 µg/mL
MIC (Bacteroides fragilis [13]): 0.05 µg/mL
MIC [14]: 0.06 µg/mL
MIC50 (Fusobacterium mortiferum): 0.03 µg/mL
MIC90 (Fusobacterium mortiferum): 0.125 µg/mL
MIC50 [15]: 0.25 µg/mL
MIC90 [15]: 4 µg/mL
MIC50 (Bacteroides caccae): 0.25 µg/mL
MIC90 (Bacteroides caccae): 4 µg/mL
MIC (Prevotella corporis): 0.03 µg/mL
MIC (Prevotella oris): 0.06 µg/mL
MIC [16]: ≤ 0.015 µg/mL
MIC (Bacteroides fragilis [17]): 2 µg/mL
MIC (Parvimonas micra [18]): 0.125 µg/mL
MIC50 (Eubacterium limosum): 0.5 µg/mL
MIC90 (Eubacterium limosum): 1 µg/mL
MIC (Clostridium perfringens): ≤ 0.015 µg/mL
MIC50 (Phocaeicola vulgatus [19]): 0.25 µg/mL
MIC90 (Phocaeicola vulgatus [19]): 4 µg/mL
MIC50 [20]: ≤ 0.015 µg/mL
MIC90 [20]: 0.03 µg/mL
MIC50 [21]: ≤ 0.015 µg/mL
MIC90 [21]: 0.125 µg/mL
MIC (Porphyromonas gingivalis [22]): ≤ 0.015 µg/mL
MIC50 (Porphyromonas gingivalis [23]): ≤ 0.015 µg/mL
MIC90 (Porphyromonas gingivalis [23]): 0.03 µg/mL
MIC50 (Porphyromonas uenonis): ≤ 0.015 µg/mL
MIC90 (Porphyromonas uenonis): 0.03 µg/mL
MIC [24]: 0.25 µg/mL
MIC50 (Clostridioides difficile): 2 µg/mL
MIC90 (Clostridioides difficile): 4 µg/mL
MIC50 (Fusobacterium sp.): 0.03 µg/mL
MIC90 (Fusobacterium sp.): 0.125 µg/mL
MIC (Bacteroides fragilis [25]): 0.25 µg/mL
MIC [26]: 0.25 µg/mL
MIC (Prevotella buccae): 0.25 µg/mL
MIC50 (Bacteroides uniformis): 0.25 µg/mL
MIC90 (Bacteroides uniformis): 4 µg/mL
MIC (Bacteroides fragilis [27]): 0.25 µg/mL
MIC50 [28]: 0.5 µg/mL
MIC90 [28]: 2 µg/mL
MIC (Phocaeicola vulgatus [29]): 0.125 µg/mL
MIC (Lactobacillus brevis): 0.5 µg/mL
